The values that follow come from patent US11325889B2, “Substituted 3-((3-aminophenyl)amino)piperidine-2,6-dione compounds, compositions thereof, and methods of treatment therewith” (Celgene Corporation, priority 2018, dated 2022).

This experiment addresses T1, AR protein in VCaP cells (Homo sapiens, UniProt P10275).
T1 construct: endogenous in cells; host or cells: VCaP cells
T1 sequence (P10275 1-920): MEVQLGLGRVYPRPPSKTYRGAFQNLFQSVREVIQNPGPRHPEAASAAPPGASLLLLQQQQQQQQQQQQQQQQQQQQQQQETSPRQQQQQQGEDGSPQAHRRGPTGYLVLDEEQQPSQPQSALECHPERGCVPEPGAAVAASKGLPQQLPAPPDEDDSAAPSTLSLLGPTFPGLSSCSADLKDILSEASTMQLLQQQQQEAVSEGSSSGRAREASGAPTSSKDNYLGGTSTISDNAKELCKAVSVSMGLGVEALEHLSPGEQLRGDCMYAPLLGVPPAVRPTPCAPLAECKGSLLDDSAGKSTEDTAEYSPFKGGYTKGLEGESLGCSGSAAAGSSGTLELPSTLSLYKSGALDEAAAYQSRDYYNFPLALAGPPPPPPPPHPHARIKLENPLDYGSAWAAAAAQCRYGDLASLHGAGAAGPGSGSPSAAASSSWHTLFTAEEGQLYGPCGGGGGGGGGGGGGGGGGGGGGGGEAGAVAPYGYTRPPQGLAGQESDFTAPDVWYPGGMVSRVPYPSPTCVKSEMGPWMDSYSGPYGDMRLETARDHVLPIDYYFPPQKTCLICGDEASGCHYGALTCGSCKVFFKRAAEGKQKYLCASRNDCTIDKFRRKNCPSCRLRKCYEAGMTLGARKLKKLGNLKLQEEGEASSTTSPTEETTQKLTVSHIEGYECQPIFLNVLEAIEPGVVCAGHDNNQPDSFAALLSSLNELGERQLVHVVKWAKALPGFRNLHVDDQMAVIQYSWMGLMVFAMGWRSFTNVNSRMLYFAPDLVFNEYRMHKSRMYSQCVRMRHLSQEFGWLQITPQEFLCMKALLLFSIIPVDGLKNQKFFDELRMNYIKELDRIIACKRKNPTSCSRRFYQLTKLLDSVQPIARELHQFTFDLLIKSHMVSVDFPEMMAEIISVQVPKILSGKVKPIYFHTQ
The experiment can be described thus: VCAP AR Degradation Assay (AR ELISA, 24 h). The experiment is classed as cell-based. To be noted: for Y (lowest measured AR level normalized to DMSO control): AR degradation efficiency; for DC50: concentration of compound when AR level = 50% of DMSO control, read-out: DC50. In short, it runs like this: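 VCaP cells in DMEM with 8% FBS exposed for 24 h at 37° C to a 10-point, 1:3 series (final top concentration […]; 0.1% DMSO control). Lysate AR measured by sandwich ELISA and normalized to DMSO as percent of control. DC50, EC50 and lowest AR level (Y) from four-parameter logistic fit.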
In general terms: An ELISA detects its analyte on a solid surface through an enzyme-linked reagent.

In general, DC50 refers to the concentration at which degradation of the target reaches its halfway point. Turning to `CC(C)c1cc(N2C(=S)N(c3ccc(C#N)c(C(F)(F)F)c3)C(=O)C2(C)C)ccc1OCC[C@@H]1CCN(CC(=O)Nc2cccc(NC3CCC(=O)NC3=O)c2)[C@H](C)C1` (stereo partly drawn) [Cmpd 91, 2-((2R,4R)-4-(2-(4-(3-(4-cyano-3-(trifluoromethyl)phenyl)-5,5-dimethyl-4-oxo-2-thioxoimidazolidin-1-yl)-2-isopropylphenoxy)ethyl)-2-methylpiperidin-1-yl)-N-(3-(2,6-dioxopiperidin-3-ylamino)phenyl)acetamide], the “Y (lowest measured AR level normalized to DMSO control)” value is “** (25%<Y<=35%)” and the half-maximal degradation concentration (DC50) lay within 500 to 1000 nM.
The matching figures for `CC(C)c1cc(N2C(=S)N(c3ccc(C#N)c(C(F)(F)F)c3)C(=O)C2(C)C)cnc1OCC[C@H]1C[C@@H](C)N(CC(=O)Nc2cccc(NC3CCC(=O)NC3=O)c2)[C@@H](C)C1` (stereo partly drawn) [Cmpd 94, 2-((2S,4r,6R)-4-(2-((5-(3-(4-cyano-3-(trifluoromethyl)phenyl)-5,5-dimethyl-4-oxo-2-thioxoimidazolidin-1-yl)-3-isopropylpyridin-2-yl)oxy)ethyl)-2,6-dimethylpiperidin-1-yl)-N-(3-((2,6-dioxopiperidin-3-yl)amino)phenyl)acetamide]: “** (25%<Y<=35%)” and 500 to 1000 nM.
The matching figures for `CCc1cc(N2C(=S)N(c3ccc(C#N)c(C(F)(F)F)c3)C(=O)C2(C)C)cnc1O[C@H]1C[C@@H](C)N(CC(=O)Nc2cccc(NC3CCC(=O)NC3=O)c2)[C@@H](C)C1` (stereo partly drawn) [Cmpd 95, 2-((2R,4r,6S)-4-((5-(3-(4-cyano-3-(trifluoromethyl)phenyl)-5,5-dimethyl-4-oxo-2-thioxoimidazolidin-1-yl)-3-ethylpyridin-2-yl)oxy)-2,6-dimethylpiperidin-1-yl)-N-(3-((2,6-dioxopiperidin-3-yl)amino)phenyl)acetamide]: “** (25%<Y<=35%)” and 500 to 1000 nM.
